The values below come from patent US20230117034A1, “PYRAZOLOTRIAZINES” (Bayer Aktiengesellschaft, priority 2019, published 2023).

pIC50: −log10 of the molar value. Bounds are passed on as bounds.

For one test, the target named is T1, CDK9/CycT1 (Homo sapiens, UniProt P50750).
T1 construct: Recombinant full-length His-tagged human CDK9 and CycT1; purchased Life Technologies PV4131; host or cells: insect cells
The experiment in a line: CDK9/CycT1 high ATP kinase assay (TR-FRET, 2 mM ATP). Format: biochemical. Conditions: 2 mM ATP (high ATP); median; read-out: CDK9/CyclinT1, 2 mM ATP (high ATP), IC50 (median). The method in brief: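 Full-length His-tagged human CDK9/CycT1 (insect cell, ~0.5 μg/mL) preincubated 15 min at 22 °C with compound in Tris pH 8.0, MgCl2, DTT buffer before reaction with biotinylated peptide substrate at high ATP (2 mM).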
On the technique in general: TR-FRET usually uses a lanthanide donor and a delayed reading to cut background.

The target in test [1] is T2, CDK12 (nuclear staining in CAL-120 cells) (Homo sapiens, UniProt Q9NYV4).
T2 construct: endogenous in cells; host or cells: CAL-120 human breast cancer cells (DSMZ ACC 459)
T2 sequence (Q9NYV4 whole entry): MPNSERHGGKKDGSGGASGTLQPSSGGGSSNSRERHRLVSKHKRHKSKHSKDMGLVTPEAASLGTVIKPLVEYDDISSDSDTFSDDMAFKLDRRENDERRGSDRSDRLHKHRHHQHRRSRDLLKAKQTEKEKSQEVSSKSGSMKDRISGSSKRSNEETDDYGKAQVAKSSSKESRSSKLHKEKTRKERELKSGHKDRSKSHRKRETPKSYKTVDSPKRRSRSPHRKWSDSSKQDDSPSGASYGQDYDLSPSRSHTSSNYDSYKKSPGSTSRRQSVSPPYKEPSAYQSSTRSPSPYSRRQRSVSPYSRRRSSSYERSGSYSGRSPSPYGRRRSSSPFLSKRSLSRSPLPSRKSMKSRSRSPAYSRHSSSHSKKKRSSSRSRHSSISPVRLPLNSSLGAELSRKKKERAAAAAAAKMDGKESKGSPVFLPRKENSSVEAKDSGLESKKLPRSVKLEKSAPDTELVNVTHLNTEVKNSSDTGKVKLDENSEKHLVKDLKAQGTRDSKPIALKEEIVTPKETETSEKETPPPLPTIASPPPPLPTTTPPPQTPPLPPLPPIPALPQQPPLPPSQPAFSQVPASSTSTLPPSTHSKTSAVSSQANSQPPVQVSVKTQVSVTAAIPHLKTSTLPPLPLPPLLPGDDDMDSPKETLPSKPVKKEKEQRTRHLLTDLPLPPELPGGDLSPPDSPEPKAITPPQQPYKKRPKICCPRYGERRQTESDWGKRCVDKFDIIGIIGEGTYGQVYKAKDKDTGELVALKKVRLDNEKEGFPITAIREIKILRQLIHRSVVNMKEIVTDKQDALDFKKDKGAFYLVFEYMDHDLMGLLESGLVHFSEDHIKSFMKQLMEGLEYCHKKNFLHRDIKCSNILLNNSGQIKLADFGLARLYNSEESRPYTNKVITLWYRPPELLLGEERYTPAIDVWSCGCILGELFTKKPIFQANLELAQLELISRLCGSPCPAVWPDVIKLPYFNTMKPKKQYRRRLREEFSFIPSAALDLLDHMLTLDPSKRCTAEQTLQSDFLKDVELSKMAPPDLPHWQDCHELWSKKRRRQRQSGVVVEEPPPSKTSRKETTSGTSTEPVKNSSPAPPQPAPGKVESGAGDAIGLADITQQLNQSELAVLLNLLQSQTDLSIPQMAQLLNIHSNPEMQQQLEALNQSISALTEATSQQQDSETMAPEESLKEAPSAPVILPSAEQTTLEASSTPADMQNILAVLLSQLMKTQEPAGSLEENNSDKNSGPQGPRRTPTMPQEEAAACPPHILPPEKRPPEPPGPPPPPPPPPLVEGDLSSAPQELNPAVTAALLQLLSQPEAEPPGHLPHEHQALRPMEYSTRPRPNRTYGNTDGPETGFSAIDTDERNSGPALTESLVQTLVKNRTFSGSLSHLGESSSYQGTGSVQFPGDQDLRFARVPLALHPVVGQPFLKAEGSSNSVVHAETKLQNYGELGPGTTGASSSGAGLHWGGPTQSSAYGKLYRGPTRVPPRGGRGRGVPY
T2 sequence (O75909 whole entry partner): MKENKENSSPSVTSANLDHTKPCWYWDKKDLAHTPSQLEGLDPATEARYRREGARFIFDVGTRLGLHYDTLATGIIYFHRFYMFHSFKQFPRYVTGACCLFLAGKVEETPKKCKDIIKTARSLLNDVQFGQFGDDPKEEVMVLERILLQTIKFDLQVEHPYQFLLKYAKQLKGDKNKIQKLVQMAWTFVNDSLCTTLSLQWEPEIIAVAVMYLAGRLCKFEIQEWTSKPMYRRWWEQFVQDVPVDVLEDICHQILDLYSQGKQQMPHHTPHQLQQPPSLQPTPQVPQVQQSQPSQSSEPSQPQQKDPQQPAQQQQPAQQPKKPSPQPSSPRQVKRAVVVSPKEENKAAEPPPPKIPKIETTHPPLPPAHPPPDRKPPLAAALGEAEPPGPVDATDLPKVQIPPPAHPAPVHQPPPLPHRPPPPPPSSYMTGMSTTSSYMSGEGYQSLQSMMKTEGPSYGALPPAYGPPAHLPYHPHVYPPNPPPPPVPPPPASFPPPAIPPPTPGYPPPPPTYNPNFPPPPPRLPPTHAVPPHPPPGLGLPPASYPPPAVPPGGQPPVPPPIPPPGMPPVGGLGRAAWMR
Briefly: CDK12 nuclear protein level: immunofluorescence/high content analysis (CAL-120). Format: cell-based. Conditions: for DC50: CAL-120 cells, 24 h, immunofluorescence, 50% reduction of nuclear CDK12 staining intensity, median, read-out: CDK12 degradation IF, DC50- [mol/l] (median); for (IC50 CDK12 high ATP) to (Degradation DC50 CDK12) ratio: ratio of IC50 CDK12 high ATP kinase assay to DC50 CDK12 degradation (IF, CAL-120). A digest of the protocol:
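CAL-120 cells were treated with compound for 24 h at 37 °C, fixed with PFA and immunostained for CDK12. Nuclear CDK12 intensity was quantified by automated image analysis and normalized to DMSO and control. DC50 is the concentration giving 50% reduction of nuclear staining.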

The target of another test is T3, CDK2/CycE (Homo sapiens, UniProt P24941).
T3 construct: purchased ProQinase GmbH (Freiburg, Germany); host or cells: insect cells (Sf9)
The experiment in a line: CDK2/CycE kinase assay (TR-FRET, 2 mM ATP). The format is biochemical. Conditions: 2 mM ATP (high ATP); median; read-out: CDK2/CyclinE, 2 mM ATP (high ATP), IC50 (median). A digest of the protocol:
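GST-tagged human CDK2 and CycE from Sf9 cells, about 10 ng/ml, pre-incubated 15 min at 22 °C with compound in Tris/HCl pH 8.0 buffer. Reaction with 2 mM ATP and 0.75 µM biotinylated peptide for 25 min at 22 °C. Phospho-RB antibody TR-FRET (665/620 nm ratio) read after 1 h; data normalised to no-inhibitor and no-enzyme controls.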

T1 sequence (P50750 whole entry): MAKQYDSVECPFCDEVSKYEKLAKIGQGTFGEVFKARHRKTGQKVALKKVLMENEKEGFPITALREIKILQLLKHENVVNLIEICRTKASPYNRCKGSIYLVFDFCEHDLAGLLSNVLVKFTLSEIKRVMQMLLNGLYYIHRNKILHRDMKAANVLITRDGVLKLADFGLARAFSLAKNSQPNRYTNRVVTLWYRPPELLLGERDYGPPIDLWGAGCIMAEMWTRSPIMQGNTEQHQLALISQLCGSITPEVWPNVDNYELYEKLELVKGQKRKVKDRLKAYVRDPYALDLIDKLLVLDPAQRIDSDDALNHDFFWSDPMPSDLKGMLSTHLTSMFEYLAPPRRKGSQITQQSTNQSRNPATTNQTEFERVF
T1 sequence (O60563 whole entry partner): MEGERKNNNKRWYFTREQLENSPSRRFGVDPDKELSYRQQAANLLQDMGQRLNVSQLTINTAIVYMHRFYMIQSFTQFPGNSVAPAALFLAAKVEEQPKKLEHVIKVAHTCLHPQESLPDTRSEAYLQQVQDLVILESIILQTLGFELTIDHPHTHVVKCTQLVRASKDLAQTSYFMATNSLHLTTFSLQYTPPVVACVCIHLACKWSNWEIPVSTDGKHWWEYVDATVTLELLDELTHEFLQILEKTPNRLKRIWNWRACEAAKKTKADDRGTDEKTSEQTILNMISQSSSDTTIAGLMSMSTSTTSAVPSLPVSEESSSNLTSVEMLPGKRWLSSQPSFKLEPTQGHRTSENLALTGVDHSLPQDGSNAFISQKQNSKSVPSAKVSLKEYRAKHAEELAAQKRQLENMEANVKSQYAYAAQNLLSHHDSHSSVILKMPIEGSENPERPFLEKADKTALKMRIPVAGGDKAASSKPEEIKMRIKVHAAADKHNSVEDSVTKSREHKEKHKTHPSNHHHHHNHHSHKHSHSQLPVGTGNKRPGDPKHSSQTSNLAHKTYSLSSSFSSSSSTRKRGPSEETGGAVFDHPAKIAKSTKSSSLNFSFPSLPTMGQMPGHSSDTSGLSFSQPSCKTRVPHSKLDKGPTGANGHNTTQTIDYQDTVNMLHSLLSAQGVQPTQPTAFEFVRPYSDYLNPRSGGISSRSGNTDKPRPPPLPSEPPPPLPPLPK

For `Brc1cnn2c(NCc3nnc(-c4ccccn4)[nH]3)nc(N3CCOCC3)nc12` [Example 54, 8-bromo-2-(morpholin-4-yl)-N-{[5-(pyridin-2-yl)-4H-1,2,4-triazol-3-yl]methyl}pyrazolo[1,5-a][1,3,5]triazin-4-amine], the pIC50 was 5.20 at CDK9/CycT1 and 5.72 on CDK2/CycE. Further, the DC50 in test [1] came out at 0.0378 µM. Further, the “(IC50 CDK12 high ATP) to (Degradation DC50 CDK12) ratio” value in test [1] came to 150.
Take `N#Cc1cccc(-c2nnc(CNc3nc(N4CCOCC4)nc4c(Br)cnn34)[nH]2)c1` [Example 55, 3-[5-({[8-bromo-2-(morpholin-4-yl)pyrazolo[1,5-a][1,3,5]triazin-4-yl]amino}methyl)-4H-1,2,4-triazol-3-yl]benzonitrile]: the pIC50 at CDK9/CycT1 is 6.14. In addition, in test [1], the DC50 is 0.00343 µM and the “(IC50 CDK12 high ATP) to (Degradation DC50 CDK12) ratio” value amounted to 224. For the same molecule, the pIC50 at CDK2/CycE was 5.97.
For `FC(F)(F)c1cnn2c(NCc3nnc(-c4ccccc4)[nH]3)nc(N3CCOCC3)nc12` [Example 427, 2-(morpholin-4-yl)-N-[(5-phenyl-4H-1,2,4-triazol-3-yl)methyl]-8-(trifluoromethyl)pyrazolo[1,5-a][1,3,5]triazin-4-amine] the same measures were 5.37, 0.0147 µM, 127 and 5.28.
With `COc1cccc2nc(CNc3nc(N4CCOCC4)nc4c(-c5ccnnc5)cnn34)[nH]c12.O=C(O)C(F)(F)F` [Example 439, trifluoroacetic acid N-[(7-methoxy-1H-benzimidazol-2-yl)methyl]-2-(morpholin-4-yl)-8-(pyridazin-4-yl)pyrazolo[1,5-a][1,3,5]triazin-4-amine], the pIC50 on CDK9/CycT1 was less than 4.70. Further, in test [1], the DC50 is 0.00465 µM and the “(IC50 CDK12 high ATP) to (Degradation DC50 CDK12) ratio” value was 850. Also, the pIC50 on CDK2/CycE was less than 4.70.
Take `FC(F)Cc1cnn2c(NCc3nc4ccccc4[nH]3)nc(N3CCOCC3)nc12.O=C(O)C(F)(F)F` [Example 444, trifluoroacetic acid N-[(1H-benzimidazol-2-yl)methyl]-8-(2,2-difluoroethyl)-2-(morpholin-4-yl)pyrazolo[1,5-a][1,3,5]triazin-4-amine]: on CDK9/CycT1, the pIC50 was less than 4.70. In test [1], the DC50 was determined as 0.00788 µM and the “(IC50 CDK12 high ATP) to (Degradation DC50 CDK12) ratio” value was determined as 1080. In addition, the pIC50 at CDK2/CycE is 4.81.
As to `Fc1ccc2[nH]c(CNc3nc(N4CCOCC4)nc4c(-c5nccs5)cnn34)nc2c1F` [Example 413, N-[(4,5-difluoro-1H-benzimidazol-2-yl)methyl]-2-(morpholin-4-yl)-8-(1,3-thiazol-2-yl)pyrazolo [1,5-a][1,3,5]triazin-4-amine], the pIC50 at CDK9/CycT1 and at CDK2/CycE was less than 4.70 throughout. The DC50 in test [1] worked out at 0.0198 µM. Also, in test [1], the “(IC50 CDK12 high ATP) to (Degradation DC50 CDK12) ratio” value is reported as more than 1012.
With `Cc1cnn2c(NCc3nc4ccccc4[nH]3)nc(N3CCN(C)CC3)nc12` [Example 396, N-[(1H-benzimidazol-2-yl)methyl]-8-methyl-2-(4-methylpiperazin-1-yl)pyrazolo[1,5-a][1,3,5]triazin-4-amine], the pIC50 at CDK9/CycT1 is less than 4.70. Further, in test [1], the DC50 worked out at 0.0194 µM and the “(IC50 CDK12 high ATP) to (Degradation DC50 CDK12) ratio” value is recorded as more than 1031. The pIC50 on CDK2/CycE was 4.86.
As for `COc1ccccc1-c1nnc(CNc2nc(N3CCOCC3)nc3c(Br)cnn23)[nH]1` [Example 61, 8-bromo-N-{[5-(2-methoxyphenyl)-4H-1,2,4-triazol-3-yl]methyl}-2-(morpholin-4-yl)pyrazolo[1,5-a][1,3,5]triazin-4-amine], on CDK9/CycT1, the pIC50 is less than 4.70. Also, in test [1], the DC50 worked out at 0.00511 µM and the “(IC50 CDK12 high ATP) to (Degradation DC50 CDK12) ratio” value is recorded as more than 3913. Further, the pIC50 at CDK2/CycE is 5.04.
As to `OC[C@H]1CCCCN1c1nc(NCc2nc3ccccc3[nH]2)n2ncc(Br)c2n1` [Example 60, [(2R)-1-(4-{[(1H-benzimidazol-2-yl)methyl]amino}-8-bromopyrazolo[1,5-a][1,3,5]triazin-2-yl)piperidin-2-yl]methanol], the pIC50 on CDK9/CycT1 was 5.13. In test [1], the DC50 is 0.00925 µM and the “(IC50 CDK12 high ATP) to (Degradation DC50 CDK12) ratio” value came out at 202. Moreover, the pIC50 at CDK2/CycE was 6.13.
As for `FC(F)n1cc(-c2cnn3c(NCc4nc5cc(Cl)c(Cl)cc5[nH]4)nc(N4CCOCC4)nc23)cn1` [Example 423, N-[(5,6-dichloro-1H-benzimidazol-2-yl)methyl]-8-[1-(difluoromethyl)-1H-pyrazol-4-yl]-2-(morpholin-4-yl)pyrazolo[1,5-a][1,3,5]triazin-4-amine], the pIC50 at CDK9/CycT1 and on CDK2/CycE was less than 4.70 in each case. Also, in test [1], the DC50 stood at 0.0178 µM. Also, in test [1], the “(IC50 CDK12 high ATP) to (Degradation DC50 CDK12) ratio” value is more than 720.
Regarding `Fc1ccc2[nH]c(CNc3nc(N4CCOCC4)nc4c(-c5cncs5)cnn34)nc2c1F.O=C(O)C(F)(F)F` [Example 442, trifluoroacetic acid N-[(4,5-difluoro-1H-benzimidazol-2-yl)methyl]-2-(morpholin-4-yl)-8-(1,3-thiazol-5-yl)pyrazolo[1,5-a][1,3,5]triazin-4-amine], the pIC50 on CDK9/CycT1 is less than 4.70. In test [1], the DC50 was 0.00468 µM and the “(IC50 CDK12 high ATP) to (Degradation DC50 CDK12) ratio” value is 125. In addition, the pIC50 at CDK2/CycE was less than 4.70.
`Cc1cnn2c(NCc3nc4c(F)c(F)ccc4[nH]3)nc(N3CCN(C)CC3)nc12` [Example 394, N-[(4,5-difluoro-1H-benzimidazol-2-yl)methyl]-8-methyl-2-(4-methylpiperazin-1-yl)pyrazolo[1,5-a][1,3,5]triazin-4-amine]: at CDK9/CycT1, the pIC50 is less than 4.70. Besides, in test [1], the DC50 turned out to be 0.00565 µM and the “(IC50 CDK12 high ATP) to (Degradation DC50 CDK12) ratio” value is more than 3303. The pIC50 on CDK2/CycE is less than 4.70.
Take `Brc1cnn2c(NCc3nnc(-c4cccnc4)[nH]3)nc(N3CCOCC3)nc12` [Example 53, 8-bromo-2-(morpholin-4-yl)-N-{[5-(pyridin-3-yl)-4H-1,2,4-triazol-3-yl]methyl}pyrazolo[1,5-a][1,3,5]triazin-4-amine]: the pIC50 at CDK9/CycT1 is 5.89; on CDK2/CycE, 5.77. Further, in test [1], the DC50 came out at 0.0472 µM. In addition, the “(IC50 CDK12 high ATP) to (Degradation DC50 CDK12) ratio” value in test [1] is listed as 43.
Consider `Brc1cnn2c(NCc3nc4ccccc4[nH]3)nc(OC3CCOCC3)nc12` [Example 405, N-[(1H-benzimidazol-2-yl)methyl]-8-bromo-2-[(oxan-4-yl)oxy]pyrazolo[1,5-a][1,3,5]triazin-4-amine], for which the pIC50 at CDK9/CycT1 was less than 4.70. Further, in test [1], the DC50 was 0.113 µM and the “(IC50 CDK12 high ATP) to (Degradation DC50 CDK12) ratio” value is more than 176. The pIC50 on CDK2/CycE is less than 4.70.
Turning to `Cn1cc(-c2cnn3c(NCc4nc5cc(Cl)c(Cl)cc5[nH]4)nc(N4CCOCC4)nc23)cn1` [Example 419, N-[(5,6-dichloro-1H-benzimidazol-2-yl)methyl]-8-(1-methyl-1H-pyrazol-4-yl)-2-(morpholin-4-yl)pyrazolo[1,5-a][1,3,5]triazin-4-amine], the pIC50 on CDK9/CycT1 was less than 4.70. For the same molecule, in test [1], the DC50 was found to be 0.0387 µM and the “(IC50 CDK12 high ATP) to (Degradation DC50 CDK12) ratio” value is reported as more than 517. At CDK2/CycE, the pIC50 is less than 4.70.
`CN1CCN(c2nc(NCc3nc4c(F)c(F)ccc4[nH]3)n3ncc(CC(F)(F)F)c3n2)CC1` [Example 437, N-[(4,5-difluoro-1H-benzimidazol-2-yl)methyl]-2-(4-methylpiperazin-1-yl)-8-(2,2,2-trifluoroethyl) pyrazolo[1,5-a][1,3,5]triazin-4-amine]: at CDK9/CycT1, the pIC50 is less than 4.70. Besides, in test [1], the DC50 was 0.00176 µM and the “(IC50 CDK12 high ATP) to (Degradation DC50 CDK12) ratio” value is listed as more than 11369. The pIC50 at CDK2/CycE was less than 4.70.
For the molecule `CC(C)COc1nc(NCc2nc3ccccc3[nH]2)n2ncc(Br)c2n1` [Example 409, N-[(1H-benzimidazol-2-yl)methyl]-8-bromo-2-(2-methylpropoxy)pyrazolo[1,5-a][1,3,5]triazin-4-amine], the values for the pIC50 at CDK9/CycT1 and on CDK2/CycE were less than 4.70 and 4.89, respectively. Besides, the DC50 in test [1] came out at 0.0298 µM. Besides, in test [1], the “(IC50 CDK12 high ATP) to (Degradation DC50 CDK12) ratio” value is more than 531.
Take `CC(C)c1cnn2c(NCc3nnc(-c4ccccc4)[nH]3)nc(N(C)CC(C)(C)O)nc12` [Example 39, 2-methyl-1-{methyl[4-{[(5-phenyl-4H-1,2,4-triazol-3-yl)methyl]amino}-8-(propan-2-yl)pyrazolo[1,5-a][1,3,5]triazin-2-yl]amino}propan-2-ol]: the pIC50 on CDK9/CycT1 was 5.31. For the same molecule, in test [1], the DC50 worked out at 0.0414 µM and the “(IC50 CDK12 high ATP) to (Degradation DC50 CDK12) ratio” value was determined as 113. Further, on CDK2/CycE, the pIC50 is 5.68.
For `Cc1cnn2c(NCc3nc4ccccc4[nH]3)nc(N3CCOCC3)nc12` [Example 393, N-[(1H-benzimidazol-2-yl)methyl]-8-methyl-2-(morpholin-4-yl)pyrazolo[1,5-a][1,3,5]triazin-4-amine] the same measures were less than 4.70, 0.0223 µM, more than 897 and 5.00.
